Experimental data: a melting point compilation (Tetko et al.; mined from patent text by program, amines drawn as free bases though some values may be those of a salt)

| SMILES | melting point |
| --- | --- |
| Clc1cc(Cl)nc(-c2ccc(Sc3ccccc3)cc2)n1 | 94 to 97 °C |
| COc1cc(CC(=O)Nc2ccc(C3(CC(=O)O)CCCC3)cc2)ccc1NC(=O)Nc1ccccc1C | 223 to 226 °C |
| COC(=O)CNc1cccc(OCc2ccccc2)c1 | 92 to 94 °C |
| c1ccc(C2(n3ccnc3)c3ccccc3C(c3ccccc3)(n3ccnc3)c3ccccc32)cc1 (centres undefined) | 258 to 260 °C |
| O=C1CN=C(c2ccccc2Cl)c2ccccc2N1 | 109 to 111 °C |
| CCOc1nn(C(=O)N(CCCF)S(=O)(=O)N=c2[nH]ccs2)c(=O)n1C | 178 °C |
| O=C(O)c1cccc(Oc2ccc(O)cc2)c1 | 163 to 166 °C |
| CCCOc1ccc(-c2ncccc2S(=O)(=O)Nc2ncc(C)nc2OC)cc1 | 134 to 135 °C |
| CCOC(=O)C1=C(C)NC(COC(=O)CCC(=O)O)=C(C(=O)OCC)C1c1ccccc1Cl (centres undefined) | 130 to 131 °C |
| CC(C)Oc1cc(CCCOc2cc(CCC(=O)O)n(Cc3ccccc3)n2)n(Cc2ccc(Cl)cc2Cl)n1 | 123 to 126 °C |
| NCCOc1ccncc1 | 108 to 112 °C |
| CCCCCCCc1ccc(-c2ccc(-c3cc(F)cc(F)c3)cc2)nc1 | 185 to 186 °C |
| CC(=O)Oc1cccc2sc(-c3ccc(C)cc3)nc12 | 110 to 113 °C |
| CCCc1c(OCCCCCC(=O)c2ccc3cc(O)c(O)cc3c2)ccc(C(=O)OCC)c1O | 170 to 172 °C |
| N#CC(c1ccccc1)c1ccccn1 (racemic) | 89 °C |
| COc1c(F)c(F)c(C(=O)C=C2OC(=O)c3ccccc32)c(F)c1F | 199 to 200 °C |
| CC(C)(C)OC(=O)NNc1ccc(NC(=O)OC(C)(C)C)cc1 | 155 °C |
| CC1(C)OC(=S)Nc2ccc(-c3cc(C#N)cs3)cc21 | 258 to 259 °C |
| Cn1cc(-c2ccc3nc(NC(=O)c4ccc(C(C)(C)C)nc4)cn3n2)cn1 | 251 to 252 °C |
| Cc1nc(N2CCN(CC3CC3)C2=O)sc1C(=O)NCc1ncccn1 | 218 to 220 °C |

| SMILES | melting point |
| --- | --- |
| O=C(O)CCCN1C(=O)c2cccc([N+](=O)[O-])c2C1=O | 144 to 146 °C |
| Nc1cc(C(=O)c2ccc(C(=O)c3ccc(F)c(N)c3)cc2)ccc1F | 220 to 221 °C |
| CCOC(=O)C(=O)CSc1ccc(-c2ccccc2)cc1 | 154 to 156 °C |
| CON=Cc1nc2c(N)nc3cc(-c4ccccc4)ccc3c2s1 | 259 to 261 °C |
| N#Cc1cnn2c1N(C(=O)CN1CCC(Cc3ccccc3)CC1)CC=C2c1cc(Cl)ccc1Cl | 157 to 158 °C |
| CCCCCCCCCCCCc1nnn(C(C)(C)C(=O)O)n1 | 68 to 71 °C |
| CCCc1cccc(C2CCCC2)c1 | 90 °C |
| CC(=O)Nc1nc(-c2ccc(S(=O)(=O)COC(C)=O)cc2)cs1 | 237 to 238 °C |
| CC(=O)NCCCn1nnnc1S | 152 to 154 °C |
| COCCOc1ccc(/C=C/C(=O)NS(=O)(=O)c2ccccn2)c(Oc2ncc(C(F)(F)F)cc2Cl)c1 | 164 to 165 °C |
| Cc1ccc(C=C(F)C(=O)NC(Cc2ccccc2)C(=O)O)cc1 (centres undefined) | 163 to 164 °C |
| CC(C)(C)C(=O)ON1C(C)(C)CC(OC(=O)CCCCCCCCC(=O)OC2CC(C)(C)N(OC(=O)C(C)(C)C)C(C)(C)C2)CC1(C)C | 93 to 97 °C |
| O=C(NC1(C(=O)O)CC1)C(CS)Cc1ccccc1 (centres undefined) | 222 to 224 °C |
| N#Cc1cc(N)c(N)cc1C#N | 262 to 264 °C |
| COc1cc2nc(N)nc(-c3cc(-c4ccccc4)cc(-c4ccc(O)cc4)c3)c2cc1OC | 255 to 257 °C |
| COCc1cc(N2CCOCC2)ncn1 | 56 °C |
| CCCCOc1ccc(C(=O)c2cccc(C(=O)O)c2)c(OC)c1 | 144 to 145 °C |
| Cc1cc(Oc2ccc(NC(=O)N3CCc4ccccc4CC3)cn2)ccc1Cl | 171 to 173 °C |
| CC1(C)Cc2c(c(N3CCCC3)nc3sc4c(NCc5cccnc5)ncnc4c23)CO1 | 289 to 290 °C |
